Reference: ChEMBL document CHEMBL6182831, “Thiazole-fused androstenone and ethisterone derivatives: potent β- and γ-actin cytoskeleton inhibitors to treat melanoma tumors” (RSC Med Chem, 2025)
Activity calls are given as the source filed them. No cut-off for these calls is given here.

Experiments:
[1] = Toxicity in C57BL/6 mouse assessed as change in body weight at 40 mg/kg, ip administered once daily and measured up to 20 days; type: organism-based; settings: in vivo, 480 h, time < 20 day
LOX IMVI [2] = assay: Cytotoxicity against human LOX IMVI cells assessed as inhibition of cell growth incubated for 24 hrs by resazurin staining based analysis; type: functional
B16-F10 [3] = assay: Cytotoxicity against mouse B16-F10 cells assessed as inhibition of cell growth incubated for 24 hrs by resazurin staining based analysis; type: functional; settings: B16-F10, 24 h
[4] = Toxicity in C57BL/6 mouse assessed as change in ALP level at 40 mg/kg, ip administered once daily and measured up to 20 days; type: organism-based; settings: in vivo, 480 h, time < 20 day
B16-F10 [5] = assay: Induction of cell cycle arrest in mouse B16-F10 cells assessed as accumulation of cells at G2/M phase at 3 uM incubated for 24 hrs by PI staining based flow cytometry analysis; type: functional
B16-F10 [6] = assay: Inhibition of colony formation in mouse B16-F10 cells at 3 uM incubated for 6 days by crystal violet staining based analysis; type: functional; settings: B16-F10, 144 h, time 6 day
[7] = Toxicity in C57BL/6 mouse assessed as change in creatinine level at 40 mg/kg, ip administered once daily and measured up to 20 days; type: organism-based; settings: in vivo, 480 h, time < 20 day
SK-MEL-28 [8] = assay: Inhibition of cell adhesion in human SK-MEL-28 cells assessed as reduction in number of adherent cells incubated for 1.5 hrs; type: functional, cell-based
SK-MEL-28 [9] = assay: Cytotoxicity against human SK-MEL-28 cells assessed as inhibition of cell growth incubated for 24 hrs by resazurin staining based analysis; type: functional; settings: SK-MEL-28, 24 h
SK-MEL-28 [10] = assay: Induction of cell cycle arrest in human SK-MEL-28 cells assessed as accumulation of cells at G2/M phase at 3 uM incubated for 24 hrs by PI staining based flow cytometry analysis; type: functional
[11] = Toxicity in C57BL/6 mouse assessed as change in ALT level at 40 mg/kg, ip administered once daily and measured up to 20 days; type: organism-based; settings: in vivo, 480 h, time < 20 day
LOX IMVI [12] = assay: Upregulation of PARVB mRNA expression in human LOX IMVI cells at 2 uM measured for 2 hrs by qPCR analysis; type: functional, cell-based
SK-MEL-28 [13] = assay: Downregulation of ACTB level in human SK-MEL-28 cells at 2 uM measured for 24 hrs by qRT-PCR analysis; type: functional, cell-based
SK-MEL-5 = assay: Cytotoxicity against human SK-MEL-5 cells assessed as inhibition of cell growth incubated for 24 hrs by resazurin staining based analysis; type: functional; settings: SK-MEL-5, 24 h
SK-MEL-28 [14] = assay: Effect on ACTG1 level in human SK-MEL-28 cells at 2 uM measured after 24 hrs by Western blot analysis; type: functional, cell-based
SK-MEL-28 [15] = assay: Effect on PARVB level in human SK-MEL-28 cells at 2 uM measured after 24 hrs by Western blot analysis; type: functional, cell-based
SK-MEL-28 [16] = assay: Upregulation of PARVB mRNA expression in human SK-MEL-28 cells at 2 uM measured for 2 hrs by qPCR analysis; type: functional, cell-based
SK-MEL-28 [17] = assay: Inhibition of cell migration in human SK-MEL-28 cells at 1.2 uM incubated for 24 hrs by wound healing assay; type: functional, cell-based
[18] = Toxicity in C57BL/6 mouse assessed as change in BUN level at 40 mg/kg, ip administered once daily and measured up to 20 days; type: organism-based; settings: in vivo, 480 h, time < 20 day
B16-F10 [19] = assay: Inhibition of cell adhesion in mouse B16-F10 cells assessed as reduction in number of adherent cells incubated for 1.5 hrs; type: functional, cell-based
B16-F10 [20] = assay: Induction of apoptosis in mouse B16-F10 cells at 8 uM measured for 24 hrs by Annexin V FITC/PI staining based flow cytometry analysis; type: functional, cell-based
B16-F10 [21] = assay: Antitumor activity against mouse B16-F10 cells implanted in C57BL/6 mouse assessed as reduction of tumor weight at 40 mg/kg, ip administered once daily from 6 to 9 days and every alternate days till 18; type: functional, organism-based; settings: time 13.0 day
SK-MEL-28 [22] = assay: Effect on ACTB mRNA expression in human SK-MEL-28 cells at 2 uM measured after 24 hrs by qRT-PCR analysis; type: functional, cell-based
[23] = Toxicity in C57BL/6 mouse assessed as change in amylase level at 40 mg/kg, ip administered once daily and measured up to 20 days; type: organism-based; settings: in vivo, 480 h, time < 20 day
B16-F10 [24] = assay: Antitumor activity against mouse B16-F10 cells implanted in C57BL/6 mouse assessed as reduction of tumor weight at 40 mg/kg, ip administered once daily from 6 to 12 days and every alternate days till 18; type: functional, organism-based; settings: time 13.0 day
B16-F10 [25] = assay: Inhibition of cell migration in mouse B16-F10 cells at 2 uM incubated for 24 hrs by wound healing assay; type: functional, cell-based
B16-F10 [26] = assay: Inhibition of cell adhesion in mouse B16-F10 cells at 2.5 uM incubated for 1.5 hrs; type: functional, cell-based
B16-F10 [27] = assay: Antitumor activity against mouse B16-F10 cells implanted in C57BL/6 mouse assessed as inhibition of tumor growth at 40 mg/kg, ip administered once daily from 6 to 9 days and every alternate days till 18; type: functional, organism-based; settings: time 13.0 day
[28] = Toxicity in C57BL/6 mouse assessed as change in albumin level at 40 mg/kg, ip administered once daily and measured up to 20 days; type: organism-based; settings: in vivo, 480 h, time < 20 day
SK-MEL-28 [29] = assay: Inhibition of cell adhesion in human SK-MEL-28 cells at 2.5 uM incubated for 1.5 hrs; type: functional, cell-based
[30] = Toxicity in C57BL/6 mouse assessed as animal survival at 40 mg/kg, ip administered once daily from 6 to 9 days and every alternate days till 18; type: organism-based; settings: in vivo, time 13 day
SK-MEL-28 [31] = assay: Effect on ACTG1 mRNA expression in human SK-MEL-28 cells at 2 uM measured after 24 hrs by qRT-PCR analysis; type: functional, cell-based
B16-F10 [32] = assay: Inhibition of colony formation in mouse B16-F10 cells at 6 uM incubated for 6 days by crystal violet staining based analysis; type: functional; settings: B16-F10, 144 h, time 6 day
[33] = Toxicity in C57BL/6 mouse assessed as change in total bilirubin level at 40 mg/kg, ip administered once daily and measured up to 20 days; type: organism-based; settings: in vivo, 480 h, time < 20 day
SK-MEL-25 = assay: Cytotoxicity against human SK-MEL-25 cells assessed as inhibition of cell growth incubated for 24 hrs by resazurin staining based analysis; type: functional; settings: SK-MEL-25, 24 h
SK-MEL-28 [34] = assay: Effect on ACTB level in human SK-MEL-28 cells at 2 uM measured after 24 hrs by Western blot analysis; type: functional, cell-based
[35] = Toxicity in C57BL/6 mouse assessed as animal survival at 40 mg/kg, ip administered once daily from 6 to 9 days and every alternate days till 19; type: organism-based; settings: in vivo, time 14 day
SK-MEL-28 [36] = assay: Inhibition of cell adhesion in human SK-MEL-28 cells at 1.5 uM incubated for 1.5 hrs; type: functional, cell-based
SK-MEL-28 [37] = assay: Inhibition of cell migration in human SK-MEL-28 cells at 1 uM incubated for 24 hrs by wound healing assay; type: functional, cell-based
SK-MEL-28 [38] = assay: Inhibition of colony formation in human SK-MEL-28 cells at 3 uM incubated for 6 days by crystal violet staining based analysis; type: functional; settings: SK-MEL-28, 144 h, time 6 day
SK-MEL-28 [39] = assay: Inhibition of colony formation in human SK-MEL-28 cells at 3 uM incubated for 8 days by crystal violet staining based analysis; type: functional; settings: SK-MEL-28, 192 h, time 8 day
SK-MEL-28 [40] = assay: Inhibition of colony formation in human SK-MEL-28 cells at 6 uM incubated for 6 days by crystal violet staining based analysis; type: functional; settings: SK-MEL-28, 144 h, time 6 day
SK-MEL-28 [41] = assay: Inhibition of colony formation in human SK-MEL-28 cells at 6 uM incubated for 8 days by crystal violet staining based analysis; type: functional; settings: SK-MEL-28, 192 h, time 8 day
B16-F10 [42] = assay: Inhibition of cell adhesion in mouse B16-F10 cells at 1.5 uM incubated for 1.5 hrs; type: functional, cell-based

Compound	Activity [1]	IC50 (LOX IMVI [2]) [nM]	IC50 (B16-F10 [3]) [nM]	Activity [4]	inhibition at 3 µM (B16-F10 [6]) [%]	Activity [7]	inhibition (SK-MEL-28 [8])	IC50 (SK-MEL-28 [9]) [µM]	Activity (SK-MEL-28 [10])	Activity [11]	Activity (SK-MEL-28 [13])	IC50 (SK-MEL-5) [µM]	Activity [18]	inhibition (B16-F10 [19])	Activity (B16-F10 [20])	Activity (B16-F10 [21])	Activity [23]	Activity (B16-F10 [24])	inhibition (B16-F10 [25])	IC50 (SK-MEL-25) [nM]	other results
C#C[C@]1(O)CC[C@H]2[C@@H]3CC=C4c5sc(-c6ccc(O)c(O)c6)nc5CC[C@]4(C)[C@H]3CC[C@@]21C	Non-toxic	4400	2600	Non-toxic	100	Non-toxic	Active	3.6	Active	Non-toxic	Active	3.7	Non-toxic	Active	Active	Active	Non-toxic	Active	Active	2500	Activity (B16-F10 [5]): Active; Activity (LOX IMVI [12]): Active; Activity (SK-MEL-28 [14]): Active; Activity (SK-MEL-28 [15]): Active; Activity (SK-MEL-28 [16]): Active; inhibition (SK-MEL-28 [17]): Active; Activity (SK-MEL-28 [22]): Active; inhibition (B16-F10 [26]): Active; TGI (B16-F10 [27]): Active; Activity [28]: Non-toxic; inhibition (SK-MEL-28 [29]): Active; survival at 312 h [30]: ~80%; Activity (SK-MEL-28 [31]): Active; inhibition at 6 µM (B16-F10 [32]): 100%; Activity [33]: Non-toxic; Activity (SK-MEL-28 [34]): Active; survival at 336 h [35]: 80%
C#C[C@]1(O)CC[C@H]2[C@@H]3CC=C4c5sc(Nc6ccccc6)nc5CC[C@]4(C)[C@H]3CC[C@@]21C	Non-toxic	1600	2700	Non-toxic	–	Non-toxic	–	1.7	–	Non-toxic	–	2.4	Non-toxic	–	–	–	Non-toxic	Active	–	1600	Activity [28]: Non-toxic; survival at 312 h [30]: ~80%; Activity [33]: Non-toxic; survival at 336 h [35]: 10%
C#C[C@]1(O)CC[C@H]2[C@@H]3CC=C4c5sc(Nc6ccc(F)cc6F)nc5CC[C@]4(C)[C@H]3CC[C@@]21C	–	1600	2500	–	100	–	Active	1.8	Active	–	Active	1.9	–	Active	Active	Active	–	–	Active	2400	inhibition (SK-MEL-28 [36]): Active; inhibition (SK-MEL-28 [37]): Active; inhibition at 3 µM (SK-MEL-28 [38]): 100%; inhibition at 3 µM (SK-MEL-28 [39]): 100%; inhibition at 6 µM (SK-MEL-28 [40]): 100%; inhibition at 6 µM (SK-MEL-28 [41]): 100%; inhibition (B16-F10 [42]): Active; TGI (B16-F10 [27]): Active; inhibition at 6 µM (B16-F10 [32]): 100%
C[C@]12CCc3nc(Nc4ccccc4)sc3C1=CC[C@@H]1[C@@H]2CC[C@]2(C)C(=O)CC[C@@H]12	–	2700	5800	–	–	–	–	6.1	–	–	–	10.6	–	–	–	–	–	–	–	6800	–
C#C[C@]1(O)CC[C@H]2[C@@H]3CC=C4c5sc(-c6ccc(F)cc6)nc5CC[C@]4(C)[C@H]3CC[C@@]21C	–	15600	13900	–	–	–	–	> 20	–	–	–	> 20	–	–	–	–	–	–	–	> 20000	–
